{
  "source": "PubChem BioAssay AID1918939",
  "about": "(Molecular Pharmacology Branch, DTP, NCI, 2023)",
  "tested_on": "653999-131-R-J2-PDC complex spheroid viability",
  "assay": "Anticancer human tumor 653999-131-R-J2-PDC patient-derived lung adenocarcinoma cell line growth inhibition",
  "conditions": "for IC50: curve of first compound; for viability, T/C: stronger effect = lower value",
  "how_it_was_run": "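Drug combinations with the LSD1 inhibitor iadademstat tested on tumor cells co-cultured as spheroids with endothelial cells and mesenchymal stem cells. Concentrations descended in half-log increments from clinical Cmax or 10 microM.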",
  "data": [
    {"molecule": "CC1(C)CCC(CN2CCN(c3ccc(C(=O)NS(=O)(=O)c4ccc(NCC5CCOCC5)c([N+](=O)[O-])c4)c(Oc4cnc5[nH]ccc5c4)c3)CC2)=C(c2ccc(Cl)cc2)C1", "note": "+ NC1CCC(NC2CC2c2ccccc2)CC1;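 further: spheroids exposed to agents for seven days before readout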", "values": [
      {"measurement": "IC50", "setting": "second compound 0.1 µM", "value": 9.33, "unit": "µM"},
      {"measurement": "IC50", "setting": "second compound 0.316 µM", "value": 8.46, "unit": "µM"},
      {"measurement": "IC50", "setting": "second compound 1 µM", "value": 8.73, "unit": "µM"},
      {"measurement": "IC50", "setting": "second compound 3.16 µM", "value": 7.79, "unit": "µM"},
      {"measurement": "IC50", "setting": "second compound 10 µM", "value": "> 10", "unit": "µM"},
      {"measurement": "viability, T/C", "setting": "second compound 0.1 µM, first compound 0.0316 µM", "value": 93.5, "unit": "%"},
      {"measurement": "viability, T/C", "setting": "second compound 0.1 µM, first compound 0.1 µM", "value": 82.4, "unit": "%"},
      {"measurement": "viability, T/C", "setting": "second compound 0.1 µM, first compound 0.316 µM", "value": 86.9, "unit": "%"},
      {"measurement": "viability, T/C", "setting": "second compound 0.1 µM, first compound 1 µM", "value": 100, "unit": "%"},
      {"measurement": "viability, T/C", "setting": "second compound 0.1 µM, first compound 3.16 µM", "value": 94.8, "unit": "%"},
      {"measurement": "viability, T/C", "setting": "second compound 0.1 µM, first compound 10 µM", "value": 47.3, "unit": "%"},
      {"measurement": "viability, T/C", "setting": "second compound 0.316 µM, first compound 0.0316 µM", "value": 76.8, "unit": "%"},
      {"measurement": "viability, T/C", "setting": "second compound 0.316 µM, first compound 0.1 µM", "value": 89.7, "unit": "%"},
      {"measurement": "viability, T/C", "setting": "second compound 0.316 µM, first compound 0.316 µM", "value": 97.7, "unit": "%"},
      {"measurement": "viability, T/C", "setting": "second compound 0.316 µM, first compound 1 µM", "value": 92, "unit": "%"},
      {"measurement": "viability, T/C", "setting": "second compound 0.316 µM, first compound 3.16 µM", "value": 92.2, "unit": "%"},
      {"measurement": "viability, T/C", "setting": "second compound 0.316 µM, first compound 10 µM", "value": 43.2, "unit": "%"},
      {"measurement": "viability, T/C", "setting": "second compound 1 µM, first compound 0.0316 µM", "value": 77, "unit": "%"},
      {"measurement": "viability, T/C", "setting": "second compound 1 µM, first compound 0.1 µM", "value": 83.4, "unit": "%"},
      {"measurement": "viability, T/C", "setting": "second compound 1 µM, first compound 0.316 µM", "value": 97.2, "unit": "%"},
      {"measurement": "viability, T/C", "setting": "second compound 1 µM, first compound 1 µM", "value": 96.5, "unit": "%"},
      {"measurement": "viability, T/C", "setting": "second compound 1 µM, first compound 3.16 µM", "value": 73.7, "unit": "%"},
      {"measurement": "viability, T/C", "setting": "second compound 1 µM, first compound 10 µM", "value": 46.8, "unit": "%"},
      {"measurement": "viability, T/C", "setting": "second compound 3.16 µM, first compound 0.0316 µM", "value": 97.9, "unit": "%"},
      {"measurement": "viability, T/C", "setting": "second compound 3.16 µM, first compound 0.1 µM", "value": 88.1, "unit": "%"},
      {"measurement": "viability, T/C", "setting": "second compound 3.16 µM, first compound 0.316 µM", "value": 102, "unit": "%"},
      {"measurement": "viability, T/C", "setting": "second compound 3.16 µM, first compound 1 µM", "value": 94.2, "unit": "%"},
      {"measurement": "viability, T/C", "setting": "second compound 3.16 µM, first compound 3.16 µM", "value": 74.5, "unit": "%"},
      {"measurement": "viability, T/C", "setting": "second compound 3.16 µM, first compound 10 µM", "value": 43.2, "unit": "%"},
      {"measurement": "viability, T/C", "setting": "second compound 10 µM, first compound 0.0316 µM", "value": 89, "unit": "%"},
      {"measurement": "viability, T/C", "setting": "second compound 10 µM, first compound 0.1 µM", "value": 84.2, "unit": "%"},
      {"measurement": "viability, T/C", "setting": "second compound 10 µM, first compound 0.316 µM", "value": 87.4, "unit": "%"},
      {"measurement": "viability, T/C", "setting": "second compound 10 µM, first compound 1 µM", "value": 87.3, "unit": "%"},
      {"measurement": "viability, T/C", "setting": "second compound 10 µM, first compound 3.16 µM", "value": 78.1, "unit": "%"},
      {"measurement": "viability, T/C", "setting": "second compound 10 µM, first compound 10 µM", "value": 50, "unit": "%"}
    ]},
    {"molecule": "Nc1ccccc1NC(=O)c1ccc(CNC(=O)OCc2cccnc2)cc1", "note": "+ NC1CC1c1ccc(-c2cccc(O)c2)cc1", "values": [
      {"measurement": "IC50", "setting": "second compound 0.1 µM", "value": 0.352, "unit": "µM"},
      {"measurement": "IC50", "setting": "second compound 0.316 µM", "value": 0.245, "unit": "µM"},
      {"measurement": "IC50", "setting": "second compound 1 µM", "value": 0.293, "unit": "µM"},
      {"measurement": "IC50", "setting": "second compound 3.16 µM", "value": 0.213, "unit": "µM"},
      {"measurement": "IC50", "setting": "second compound 10 µM", "value": 0.177, "unit": "µM"},
      {"measurement": "viability, T/C", "setting": "second compound 0.1 µM, first compound 0.00949 µM", "value": 89, "unit": "%"},
      {"measurement": "viability, T/C", "setting": "second compound 0.1 µM, first compound 0.03 µM", "value": 101, "unit": "%"},
      {"measurement": "viability, T/C", "setting": "second compound 0.1 µM, first compound 0.0949 µM", "value": 81.5, "unit": "%"},
      {"measurement": "viability, T/C", "setting": "second compound 0.1 µM, first compound 0.3 µM", "value": 52.9, "unit": "%"},
      {"measurement": "viability, T/C", "setting": "second compound 0.1 µM, first compound 0.949 µM", "value": 22.6, "unit": "%"},
      {"measurement": "viability, T/C", "setting": "second compound 0.1 µM, first compound 3 µM", "value": 1.35, "unit": "%"},
      {"measurement": "viability, T/C", "setting": "second compound 0.316 µM, first compound 0.00949 µM", "value": 93, "unit": "%"},
      {"measurement": "viability, T/C", "setting": "second compound 0.316 µM, first compound 0.03 µM", "value": 85.8, "unit": "%"},
      {"measurement": "viability, T/C", "setting": "second compound 0.316 µM, first compound 0.0949 µM", "value": 64.3, "unit": "%"},
      {"measurement": "viability, T/C", "setting": "second compound 0.316 µM, first compound 0.3 µM", "value": 49.5, "unit": "%"},
      {"measurement": "viability, T/C", "setting": "second compound 0.316 µM, first compound 0.949 µM", "value": 20.4, "unit": "%"},
      {"measurement": "viability, T/C", "setting": "second compound 0.316 µM, first compound 3 µM", "value": 1.41, "unit": "%"},
      {"measurement": "viability, T/C", "setting": "second compound 1 µM, first compound 0.00949 µM", "value": 81.2, "unit": "%"},
      {"measurement": "viability, T/C", "setting": "second compound 1 µM, first compound 0.03 µM", "value": 68.5, "unit": "%"},
      {"measurement": "viability, T/C", "setting": "second compound 1 µM, first compound 0.0949 µM", "value": 77.9, "unit": "%"},
      {"measurement": "viability, T/C", "setting": "second compound 1 µM, first compound 0.3 µM", "value": 48, "unit": "%"},
      {"measurement": "viability, T/C", "setting": "second compound 1 µM, first compound 0.949 µM", "value": 13.1, "unit": "%"},
      {"measurement": "viability, T/C", "setting": "second compound 1 µM, first compound 3 µM", "value": 0.97, "unit": "%"},
      {"measurement": "viability, T/C", "setting": "second compound 3.16 µM, first compound 0.00949 µM", "value": 84.6, "unit": "%"},
      {"measurement": "viability, T/C", "setting": "second compound 3.16 µM, first compound 0.03 µM", "value": 74.4, "unit": "%"},
      {"measurement": "viability, T/C", "setting": "second compound 3.16 µM, first compound 0.0949 µM", "value": 69.4, "unit": "%"},
      {"measurement": "viability, T/C", "setting": "second compound 3.16 µM, first compound 0.3 µM", "value": 42.1, "unit": "%"},
      {"measurement": "viability, T/C", "setting": "second compound 3.16 µM, first compound 0.949 µM", "value": 15.8, "unit": "%"},
      {"measurement": "viability, T/C", "setting": "second compound 3.16 µM, first compound 3 µM", "value": 1.74, "unit": "%"},
      {"measurement": "viability, T/C", "setting": "second compound 10 µM, first compound 0.00949 µM", "value": 76.1, "unit": "%"},
      {"measurement": "viability, T/C", "setting": "second compound 10 µM, first compound 0.03 µM", "value": 82.2, "unit": "%"},
      {"measurement": "viability, T/C", "setting": "second compound 10 µM, first compound 0.0949 µM", "value": 57.1, "unit": "%"},
      {"measurement": "viability, T/C", "setting": "second compound 10 µM, first compound 0.3 µM", "value": 42.3, "unit": "%"},
      {"measurement": "viability, T/C", "setting": "second compound 10 µM, first compound 0.949 µM", "value": 13.3, "unit": "%"},
      {"measurement": "viability, T/C", "setting": "second compound 10 µM, first compound 3 µM", "value": 0.95, "unit": "%"}
    ]}
  ]
}
